Test results as given in patent publication US20190053492A1, “SUBSTITUTED PYRIDINE COMPOUNDS AS PESTICIDES” (Bayer CropScience Aktiengesellschaft, priority 2016, published 2019).

How the values were obtained:
[1] = log P by HPLC on reversed-phase column (C 18), EEC Directive 79/831 Annex V.A8; format: physicochemical; conditions: 55° C.; for LOGP_HCOOH: log P (HCOOH)
Procedure: Temperature: 55° C. […] Called log P (HCOOH) in the table. […] Called log P (neutral) in the table.

Ctenocephalides felis = Ctenocephalides felis oral test; format: in vivo; conditions: application rate 100 ppm in citrated cattle blood, after 2 days, adult cat fleas
Outline: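 About 20 unfed adult cat fleas fed through a parafilm membrane on citrated cattle blood dosed with compound from a DMSO formulation. Percent kill was scored after 2 days.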

Lucilia cuprina = Lucilia cuprina test; format: in vivo; conditions: application rate 100 ppm, after 2 days, L1 larvae
Procedure: Lucilia cuprina Test Solvent: dimethyl sulphoxide To produce a suitable active ingredient formulation, 10 mg of active ingredient are mixed with 0.5 ml of dimethyl sulphoxide, and the concentrate is diluted with water to the desired concentration. About 20 L1 larvae of the Australian sheep blowfly (Lucilia cuprina) are transferred into a test vessel containing minced horsemeat and the active ingredient formulation of the desired concentration. After 2 days, the kill in % is determined. 100% means that all the larvae have been killed; 0% means that no larvae have been killed.

Musca domestica = Musca domestica test; format: in vivo; conditions: application rate 100 ppm, after 2 days, adult houseflies
Procedure: Musca domestica Test Solvent: dimethyl sulphoxide To produce a suitable active ingredient formulation, 10 mg of active ingredient are mixed with 0.5 ml of dimethyl sulphoxide, and the concentrate is diluted with water to the desired concentration. Vessels containing a sponge treated with sugar solution and the active ingredient formulation of the desired concentration are populated with 10 adult houseflies (Musca domestica). After 2 days, the kill in % is determined. 100% means that all of the flies have been killed; 0% means that none of the flies have been killed.

Phaedon cochleariae = Phaedon cochleariae spray test; format: in vivo; conditions: after 7 days, Chinese cabbage leaf discs
Outline: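 Chinese cabbage leaf discs sprayed with compound in acetone/DMF and emulsifier-containing water, then infested with mustard beetle larvae once dry. Efficacy in % scored after 7 days (100% = all larvae killed, 0% = none).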

Spodoptera frugiperda = Spodoptera frugiperda spray test; format: in vivo; conditions: after 7 days, maize leaf discs
Outline: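 Maize leaf discs were sprayed with compound formulated in acetone/DMF and emulsifier-containing water, dried, then infested with Spodoptera frugiperda caterpillars. Percent kill was scored after 7 days, from 100% (all dead) to 0% (none dead).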

[2] = acidic range pH 2.7, 0.1% aqueous formic acid and acetonitrile, reversed-phase column (C 18)
[3] = log P, neutral range, HPLC on reversed-phase column (C 18)
[4] = acidic range at pH 2.7, 0.1% aqueous formic acid and acetonitrile, HPLC on reversed-phase column (C 18)
[5] = log P (neutral), HPLC reversed-phase column (C 18)

Structure (SMILES) | LOGP_HCOOH [1, 2] | LOGP_NEUTRAL [1, 3] | efficacy (kill in %) (Ctenocephalides felis) [%] | efficacy (kill in %) (Lucilia cuprina) [%] | efficacy (kill in %) (Musca domestica) [%] | efficacy (beetle larvae killed) (Phaedon cochleariae; application rate 100 g/ha) [%] | efficacy (beetle larvae killed) (Phaedon cochleariae; application rate 500 g/ha) [%] | efficacy (caterpillars killed) (Spodoptera frugiperda; application rate 100 g/ha) [%] | efficacy (caterpillars killed) (Spodoptera frugiperda; application rate 500 g/ha) [%] | LOGP_HCOOH [1, 4] | LOGP_NEUTRAL [1, 5]
N#Cc1ccc(CNC(=O)c2cc(-c3ccc(C(F)(F)F)cc3)cc(NC(=O)C3CC3)n2)cc1F [Example I-026] | 3.87 | 3.79 | 100 | 100 | 100 | 100 | 100 | 100 | 100 | – | –
CC(NC(=O)c1cc(-c2ccc(C(F)(F)F)cc2)cc(NC(=O)C2CC2)n1)c1ccc(C#N)cc1 (centres unmarked) [Example I-040] | 4.01 | 3.94 | 98 | 100 | 90 | 100 | 100 | 83 | 100 | – | –
CC(C)C(=O)Nc1cc(-c2ccc(OC(F)(F)F)cc2)cc(C(=O)NCc2cc(F)c(C#N)c(F)c2)n1 [Example I-073] | 4.35 | 4.21 | 100 | 100 | 80 | – | – | 83 | 100 | – | –
N#Cc1cc(F)c(CNC(=O)c2cc(-c3ccc(C(F)(F)F)cc3)cc(NC(=O)C3CC3)n2)cc1F [Example I-074] | 4.05 | 3.90 | 100 | 100 | 100 | 100 | 100 | 100 | 100 | – | –
N#Cc1ccc(CNC(=O)c2cc(-c3ccc(C(F)(F)F)cc3)cc(NC(=O)C3CC3)n2)c(F)c1 [Example I-077] | 3.90 | 3.79 | 100 | 100 | 80 | 83 | 100 | 100 | 100 | – | –
CC(C)C(=O)Nc1cc(-c2ccc(C(F)(F)F)cc2)cc(C(=O)NCc2ccc(C#N)cc2F)n1 [Example I-078] | 3.99 | 3.96 | 100 | 100 | 100 | – | 100 | 100 | 100 | – | –
N#Cc1ccc(CNC(=O)c2cc(-c3ccc(OC(F)(F)F)cc3)cc(NC(=O)C3CC3)n2)c(F)c1 [Example I-079] | 4.03 | 3.91 | 100 | 100 | 90 | – | 100 | 100 | 100 | – | –
Cn1nccc1-c1ccc(CNC(=O)c2cc(-c3ccc(OC(F)(F)F)cc3)cc(NC(=O)C3CC3)n2)cc1 [Example I-107] | 3.86 | 3.80 | – | 100 | 90 | 100 | 100 | – | 100 | – | –
N#Cc1ccc(C2(NC(=O)c3cc(-c4ccc(OC(F)(F)F)cc4)cc(NC(=O)C4CC4)n3)CC2)cc1 [Example I-159] | – | 3.93 | 100 | 90 | 80 | – | – | 100 | 100 | 4.08 | –
N#Cc1ccc(CNC(=O)c2cc(-c3ccc(OC(F)(F)Cl)cc3)cc(NC(=O)C3CC3)n2)cc1 [Example I-190] | – | – | 100 | 100 | – | 100 | 100 | 100 | 100 | 4.09 | –
CC(F)(F)c1ccc(-c2cc(NC(=O)C3CC3)nc(C(=O)NCc3ccc(C#N)cc3)c2)cc1 [Example I-192] | – | 3.40 | 100 | 90 | – | 100 | 100 | 100 | 100 | 3.42 | –
N#Cc1ccc(CNC(=O)c2cc(-c3ccc(OC(F)(F)F)cc3)cc(NC(=O)C3CC(F)(F)C3)n2)cc1 [Example I-213] | – | 4.02 | 100 | 100 | – | 100 | 100 | 100 | – | 4.14 | –
CC(C)C(=O)N(C)c1cc(-c2ccc(OC(F)(F)F)cc2)cc(C(=O)NCc2ccc(C#N)cc2)n1 [Example I-217] | – | 3.89 | 80 | 100 | – | – | 83 | 100 | 100 | 4.02 | –
N#Cc1ccc(CNC(=O)c2cc(-c3ccc(C(F)(F)F)c(F)c3)cc(NC(=O)C3CC3)n2)cc1 [Example I-224] | – | 3.82 | 100 | 100 | – | 100 | 100 | 100 | 100 | 3.86 | –
N#Cc1ccc(CNC(=O)c2cc(-c3ccc(N(C(F)(F)F)C(F)(F)F)cc3)cc(NC(=O)C3CC3)n2)cc1 [Example I-225] | – | 4.34 | 100 | 100 | – | 100 | 100 | 100 | 100 | 4.40 | –
CC(NC(=O)c1cc(-c2ccc(OC(F)(F)F)cc2)cc(NC(=O)C2CC2)n1)c1ccc([N+](=O)[O-])cc1 (centres unmarked) [Example I-228] | – | – | 100 | 100 | – | – | 100 | 83 | 100 | 4.28 | –
CC(C#N)NC(=O)c1cc(-c2ccc(C(F)(F)C(F)(F)F)c(F)c2)cc(NC(=O)C2CC2)n1 (centres unmarked) [Example I-245] | 3.94 | – | 100 | 80 | – | 100 | 100 | 100 | 100 | – | –
CC(NC(=O)c1cc(-c2ccc(C(F)(F)C(F)(F)F)c(F)c2)cc(NC(=O)C2CC2)n1)c1ccc(C#N)cc1 (centres unmarked) [Example I-247] | 4.56 | – | 100 | 100 | – | 100 | 100 | 100 | 100 | – | 4.49
N#Cc1cc(F)c(CNC(=O)c2cc(-c3ccc(C(F)(F)C(F)(F)F)c(F)c3)cc(NC(=O)C3CC3)n2)cc1F [Example I-249] | 4.51 | – | 100 | 100 | – | 100 | 100 | 100 | 100 | – | 4.51
N#Cc1c(F)cc(CNC(=O)c2cc(-c3ccc(C(F)(F)C(F)(F)F)c(F)c3)cc(NC(=O)C3CC3)n2)cc1F [Example I-250] | 4.56 | – | 100 | 95 | – | 100 | 100 | 100 | 100 | – | 4.50
